Results as given in ChEMBL document CHEMBL1152375 (Bioorg Med Chem Lett, 2009).
Activity calls are given as the source filed them. The calls are words filed in the database; no cut-off is given here.

Tests used:
[1] = biological target: T1, Hydroxycarboxylic acid receptor 3 (Homo sapiens, UniProt P49019); assay: Agonist activity at GPR109b receptor transfected in CHOK1 cells assessed as inhibition of forskolin-induced cAMP generation by HTRF assay; type: functional, cell-based, CHO-K1
[2] = biological target: Hydroxycarboxylic acid receptor 2 (Homo sapiens) (UniProt Q8TDS4); assay: Agonist activity at GPR109a receptor transfected in CHOK1 cells assessed as inhibition of forskolin-induced cAMP generation at 30 pM to 100 uM by HTRF assay; type: functional, cell-based; details: CHO-K1
Sequence of Hydroxycarboxylic acid receptor 2 (Homo sapiens) (Q8TDS4 whole entry): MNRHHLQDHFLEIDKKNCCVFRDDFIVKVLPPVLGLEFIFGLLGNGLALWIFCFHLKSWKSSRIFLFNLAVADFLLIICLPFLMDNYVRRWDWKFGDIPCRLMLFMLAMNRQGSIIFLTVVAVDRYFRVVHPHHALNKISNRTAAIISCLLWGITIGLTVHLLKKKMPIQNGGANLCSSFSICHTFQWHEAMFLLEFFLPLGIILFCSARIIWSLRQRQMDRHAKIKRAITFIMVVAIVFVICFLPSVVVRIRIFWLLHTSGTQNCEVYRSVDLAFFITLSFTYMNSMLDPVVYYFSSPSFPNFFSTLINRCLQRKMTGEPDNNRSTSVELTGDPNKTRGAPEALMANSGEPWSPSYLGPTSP

[3] = biological target: T1, Hydroxycarboxylic acid receptor 3; details: CHO-K1; 30 pM
[4] = biological target: T1, Hydroxycarboxylic acid receptor 3; assay: Agonist activity at GPR109b receptor transfected in forskolin-stimulated CHOK1 cells assessed as cAMP generation at 10 uM by HTRF assay; type: functional, cell-based; details: CHO-K1

T1 sequence (P49019 whole entry): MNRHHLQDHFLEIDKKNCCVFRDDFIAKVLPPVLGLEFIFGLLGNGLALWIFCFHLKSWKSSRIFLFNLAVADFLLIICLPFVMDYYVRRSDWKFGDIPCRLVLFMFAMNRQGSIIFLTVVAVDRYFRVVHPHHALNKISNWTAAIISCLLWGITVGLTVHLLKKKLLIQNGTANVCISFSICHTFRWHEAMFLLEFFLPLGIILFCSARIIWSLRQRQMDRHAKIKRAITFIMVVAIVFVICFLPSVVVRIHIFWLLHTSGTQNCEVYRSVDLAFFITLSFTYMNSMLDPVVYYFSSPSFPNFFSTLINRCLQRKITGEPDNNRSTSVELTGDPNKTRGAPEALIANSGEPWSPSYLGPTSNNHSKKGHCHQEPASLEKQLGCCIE

SMILES	EC50 [1] [µM]	other results
CC(C)CCN(CCC(C)C)c1cc(C(=O)O)n[nH]1	> 10	
CCC(C)Nc1cc(C(=O)O)n[nH]1 (stereo unspecified)	4.47	pEC50 [2]: inactive
O=C(O)c1cc(N(Cc2ccsc2)Cc2ccsc2)[nH]n1	0.00316	
O=C(O)c1cc(N(Cc2ccc(F)cc2)Cc2ccc(F)cc2)[nH]n1	> 10	pEC50 [2]: inactive
O=C(O)c1cc(N(Cc2ccc(Br)s2)Cc2ccc(Br)s2)[nH]n1		pEC50 [3]: inactive
O=C(O)c1cc(N(Cc2cccc(F)c2)Cc2cccc(F)c2)[nH]n1	> 10	
O=C(O)c1cc(N(Cc2ccccc2F)Cc2ccccc2F)[nH]n1	8.71	pEC50 [2]: inactive
O=C(O)c1cc(N(Cc2ccc(F)cc2)Cc2ccsc2)[nH]n1		pEC50 [3]: inactive
CCCCCCN(CCCCCC)c1cc(C(=O)O)n[nH]1	> 10	
O=C(O)c1cc(N(Cc2cccs2)Cc2cccs2)[nH]n1	0.257	
O=C(O)c1cc(N(CC2CCCCC2)CC2CCCCC2)[nH]n1		pEC50 [3]: inactive
CCCN(CCC)c1cc(C(=O)O)n[nH]1	8.32	
O=C(O)c1cc(N(Cc2ccoc2)Cc2ccoc2)[nH]n1	8.91	pEC50 [2]: inactive
CCCC(C)Nc1cc(C(=O)O)n[nH]1 (stereo unspecified)	6.76	pEC50 [2]: inactive
O=C(O)c1cc(N(CCc2ccccc2)CCc2ccccc2)[nH]n1	5.62	
O=C(O)c1cc(N(CC2CC2)CC2CC2)[nH]n1	3.98	pEC50 [2]: inactive
O=C(O)c1cc(N(Cc2ccccc2)Cc2ccccc2)[nH]n1	0.851	
O=C(O)c1cc(N(Cc2ccsc2)Cc2ccco2)[nH]n1	> 10	
Cc1ccc(CN(Cc2ccc(C)s2)c2cc(C(=O)O)n[nH]2)s1		pEC50 [3]: inactive
O=C(O)c1cc(N(Cc2ccccc2)Cc2ccsc2)[nH]n1	0.0145	
O=C(O)c1cc(N(Cc2ccoc2)Cc2ccsc2)[nH]n1		pEC50 [3]: inactive
C=CCNc1ccc(C(=O)O)cn1	0.0417	Activity [4]: 200%
O=C(O)c1cc(NCc2ccccc2)[nH]n1		pEC50 [3]: inactive
O=C(O)c1cc(N(Cc2ccsc2)Cc2cccs2)[nH]n1	0.141	
